Test results taken from patent US5496855A, “Anti-inflammatory compounds” (SmithKline Beecham Corp., priority 1995, dated 1996).
Like-named read-outs stand apart in the source and are kept apart here.

Legend:
[1] = tested on: TPA-induced Mouse Ear Inflammation; assay: Assay (g): TPA-induced mouse ear inflammation (ear edema, MPO); format: in vivo; settings: for TPA % change in edema / change in MPO, TPA model: topical, standard inhibitors at doses of 0.2, 0.1 and 0.3 respectively
Experimental: (§1) Male Balb/c inbred mice are obtained from Charle River Breeding Laboratories (Kingston, N.Y.). Within a single experiment mice (22-25 g) are age-matched. These in vivo experiments typically involve the use of 5-6 animals/group.
TPA (12-0-tetradecanoylphorbol 13-acetate) (Sigma Chemical Company) in acetone ([…]) is applied to the inner and outer surfaces of the left ear of BALB/c male mice. The thickness of both ears is then measured with a dial micrometer (Mitutoyo, Japan) at both 2 and 4 hours after treatment, and the data expressed as the change in thickness (10^-3 cm) between treated and untreated ears. […] After measuring the edema, the inflammed left ears are removed and stored at -70° C. until they were assayed for MPO (myeloperoxidase) activity where appropriate.
(§2) On the day of the assay, partially thawed ear tissues are minced and then homogenized (10% w/v) with a Tissumizer homogenizer (Tekmar Co.) in 50 mM phosphate buffer (pH 6) containing 0.5% HTAB. The tissue homogenates are taken through three cycles of freeze-thaw, followed by brief sonication (10 sec). The method of Bradley et at. is used with modifications as described. […] Supernatant MPO activity is quantified kinetically (change in absorbance measured over 3 min, sampled at 15-sec intervals) using a Beckman DU-7 spectrophotometer and a Kinetics Analysis package (Beckman Instruments, Inc.). One unit of MPO activity is defined as that degrading one micromole of peroxide per minute at 25° C.
Statistical analysis is done using Student's "t" test.

[2] = tested on: Arachidonic acid induced ear inflammation; assay: Assay (h): Arachidonic acid induced ear inflammation (ear edema, MPO); format: in vivo, mouse; settings: for AA % change in edema / change in MPO, AA model: topical, standard inhibitors at doses of 0.2, 0.1 and 0.3 respectively
Experimental: as §1, §2
Arachidonic acid is dissolved in acetone (1 mg/ear) to the left ear of BALB/c male mice. The thickness of both cars is measured with a constant pressure thickness guage 1 hour after treatment and the data expressed as the change in thickness between treated and untreated ears. Test compounds or vehicle are given at the time of AA application. The inflammatory cell infiltration is measured by MPO activity as described above in the TPA ear edema assay. After the edema measurements are made, the inflamed ears are removed and assayed for MPO activity.

human neutrophils [3] = assay: Assay (c): Arachidonic acid release assay, A23187-stimulated neutrophils; format: cell-based; settings: at levels greater than 10 uM
Experimental: Human neutrophils are obtained in the laboratory using three different methods. One method uses leukophoresis packs from normal humans and neutrophils are isolated using the histopaque-1077 technique. The blood is centrifuged at 300×g for 10 minutes. The cell pellets are resuspended in PBS composed of 137 mM NaCl, 8.8 mM Na2HPO4, 1.5 mM KH2PO4, 2.7 mM KCI (Dulbecco's Gibco Laboratories, Long Island, N.Y.) and layered over histopaque-1077 (Sigma, St. Louis, Mo.). The pellets are collected after centrifugation (300×g for 30 minutes) and washed once in PBS. The cell pellets are exposed briefly to deionized water to lyse any erythrocytes. The remaining cells are collected by centrifugation, suspended in PBS, counted and identified after cytospinning and staining. The final leukocyte preparation will be of greater than 95% purity and viability.
The second method isolates human neutrophils from fresh heparinized normal blood using the Histopaque-1077 technique. […] The remaining cells are collected by centrifugation, suspended in PBS, counted and identified after cytospinning and staining. […]
The third method isolates human neutrophils from freshly drawn heparinized normal blood using the Percoil technique. […] The neutrophils are suspended in PBS, counted and identified after cytospinning and staining. […]

human neutrophils [4] = assay: Assay (d): Production of platelet-activating factor (PAF), A23187-stimulated neutrophils; format: cell-based
Experimental: Blood is obtained from normal humans and neutrophils are isolated as described for the arachidonic acid release assay, above. The final leukocyte preparation should be of greater than 95% purity and viability.
Neutrophils are suspended in PBS at concentrations of 5 to 20×10^6 cells per ml. Cells are added to test tubes and treated with the desired compounds for 5 to 10 minutes, then challenged with calcium ionophore A23187, 2 μM and 20-30 μCi of [3H]acetic acid (NEN-Dupont, Boston, Mass.), or the vehicle of PBS with 0.25-1 mg/ml. After 5 to 20 minutes, the reactions are terminated by addition of an equal volume of chloroform:methanol (1:2, v/v) to the samples and the lipiris are extracted by addition of equal volumes of chloroform and distilled water. The samples are vortexed and centrffuged at high speed and the chloroform layer removed to a clean tube.
The chloroform from each tube is evaporated to dryness and the material suspended in a small volume of chloroform or chloroform:methanol (25-100 μl) and the total material spotted on a Silica TLC plate. The plates are developed in chloroform/methanol/acetic acid/water (50:25:8:4, v/v) visualized by radioscanning (Bioscan) and the product, [^3 H]PAF, is scraped and quantified by liquid scintillation spectroscopy. With this TLC system, the Rf value for a synthetic standard of PAF is approximately 0.33.

rh Type II-14 kDa PLA2 = biological target: T1, rh Type II-14 kDa PLA2 (Homo sapiens, UniProt P14555); assay: Assay (a): Phospholipase A2 assay, acylhydrolysis of [3H]-AA-E. coli; format: biochemical; settings: generally tested at 50 μm levels
T1 sequence (P14555 21-144): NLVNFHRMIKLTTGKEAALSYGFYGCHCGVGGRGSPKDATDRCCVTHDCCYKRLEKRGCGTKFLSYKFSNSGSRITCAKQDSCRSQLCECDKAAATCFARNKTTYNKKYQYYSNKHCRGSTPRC
Experimental: Phospholipase A2 activity of rh Type II-14 kDa PLA2 or PLA2 semi-purified from human synovial joint fluid was measured by the acylhydrolysis of high specific activity (NEN)[^3 H]-AA-E. coli (0.5 mCi/5nmol PL Pi) as previously described in Marshall et at., J. Rheumatology, 18:1, pp59-65 (1991). […] [Predominately used herein was rh Type II 14 kDa PLA2, or alternatively bovine pancreatic PLA2 was also be used]. The reaction mixture ([…] total volume) contained 25 mM HEPES, pH 7.4, 150 mM NaCl, 5 mM CaCl2 and [^3 H]-AA-E. coli (low specific activity; 5-8 nmol PL Pi per assay). Assays were incelbated for a time predetermined to be on the linear portion of a time versus hydrolysis plot. Experiments were conducted with final % hydrolysis values ranging from 2% (400-1000 dpm) to 10% (2000-5000 dpm) acylhydrolysis after blank correction. Reactions were terminated by the addition of 1.0 mL tetrahydrofuran (THF). […] Radiolabel in this eluate was quantitated by liquid scintillation counting. Results were expressed as % of fatty acid hydrolyzed ([sample dpms-non-specific (blank) dpms/total dpms]×100) or specific activity which was calculated from hydrolysis values found in the linear portion of time versus % hydrolysis plots (pmol free fatty acid hydrolyzed mg/min). […]

human monocytes = assay: Assay (f): stimulated eicosanoid (PGE2, LTC4) release by human monocytes; format: cell-based; settings: human monocyte cells, A23187
Experimental: Leukocyte-rich leukopaks obtained from Biological Specialties (Lansdale, Pa.) are collected from male volunteers who are not taking anti-inflammatory drugs. Leukopaks are centrifuged (90×g for 15 min) twice to remove the platelet-rich plasma. The cell pellet is washed by centrifugation and are resuspended in HBSS without Ca^2+ or Mg^2+. Histopaque 1077 is layered under the cell suspension and centrifuged at 400×g for 30 min to obtain the buffy coat. The interfacial buffy coat, containing monocytes and lymphocytes, is removed and saved. The buffy coat is washed twice with HBSS without Ca^2+ or Mg^2+ by centrifugation. The cell pellet (4-6×10^8 cells/30 mls) is resuspended in iso-osmotic media (RPMI-1640, 10% heat inactivated fetal bovine serum (FBS), 0.2 mM L-glutamine, 2.5 mM HEPES) and layered over an equal volume of 46% Percol mixture (10×PBS/Percol; 9.25/0.75) and 54% iso-osmotic media and centrifuged for 30 min at 1000×g (Marshall and Roshak, Biochem. Cell Biol. 71: 331-339, 1993). The monocyte population located at the interface of the Percoll gradient is removed and washed twice in HBSS without Ca^2+ or Mg^2+.
Monocytes (5×10^6 /ml are incubated as a suspension in serum-free RPMI-1640 medium containing the vehicle DMSO (<1%) or drug for 30 min at 27° C. after which vehicle or stimuli is added for the indicated time. The stimulating agent is solubilized in DMSO and appropriate vehicle controls are included in all experiments. The amount of stimuli is chosen from the linear portion of a concentration versus product curve usually representing 60-80% maximal stimulation over the indicated incubation time at 37° C. (A23187, 1 μM, (15 min). The reaction is terminated by reduction of pH through addition of citric acid and centrifugation (10 min, 400×g, 4° C.). Cell viability is monitored before and after experiments using trypan blue exclusion. The cell-free media is decanted and stored at -70° C. until analyzed. Prostaglandin E2 and LTC4 are directly measured in cell-free media using enzyme immunoassay (EIA) kits purchased from Caymen Chemical Co. (Ann Arbor, Mich.) Sample or standard dilutions are made with appropriate media and analyzed in triplicate. Results are obtained by extrapolation from a standard curve prepared in the media and expressed as pg or ng/ml of sample.

CoA-IT = assay: Assay (b): CoA-IT activity in U937 cell microsomes; format: biochemical, human
Text: The following is a method to measure CoA-IT activity and the effects of compounds on CoA-IT activity. The assay is based upon mixing cellular material containing CoA-IT activity with a stable lyso phospholipid such as 1-alkyl-2-acyl-GPC and measuring the production of phospholipid product such as 1-alkyl-2-acyl-GPC occurring in the absence of added CoA or CoA-fatty acids.
Any inflammatory cell that contains high levels of CoA-IT activity can be used, such as neutrophils, macrophages or cell lines such as U937 cells. U937 cells were obtained from American Type Culture Collection and grown in RPMI-1640 media (Gibco, Grand Island, N.Y.) supplemented with 10% fetal bovine serum (Hyclone, Logan, Utah) at 37° C., 5% CO2. Cells were grown without differentiation (basal state) by any agent, such as dimethyl sulfoxide. As used herein, "inflammatory cells" include, but are not limited to neutrophils, macrophages, monocytes, lymphocytes, eosinophils, basophils, and mast cells.
Microsomes are prepared using standard techniques. […]
CoA-IT activity is measured in 1.5 ml centrifuge tubes in a total volume of 100 ul. […] An aliquot of the chloroform-extracted materials are separated, usually by TLC in chloroform/methanol/acetic acid/water (50:25:8:4, v/v), visualized by radioscanning (Bioscan) and the product, [3H ]1-alkyl-2-acyl-GPC, is scraped and quantified by liquid scintillation spectroscopy. […]

[5] = read-out: IC50 for LTC4 release

SMILES | TPA % change in edema [1] [%] | change in MPO, TPA model [1] | AA % change in edema [2] [%] | change in MPO, AA model [2] | inhibitory activity in arachidonic acid release assay (human neutrophils [3]) | PLA2 inhibition (rh Type II-14 kDa PLA2) | IC50 (human monocytes; [5]) [nM] | IC50 (human monocytes; read-out: IC50 of PGE2 release) [nM] | also measured
C[C@H](C(=O)O)c1ccc2cc(OCc3ccc4ccccc4n3)ccc2c1 [WY 50,295] | -18 | -36 | -50 | -90 |  |  |  |  | 
N#CCC(CSc1ccc(Cc2ccccc2)cc1)NC(=O)CCCCCCc1ccccc1 (stereo not drawn) [Example 2, [3-(7-Phenylheptylamido)-4-(4-phenylmethyl)phenylthio]butylnitrile] |  |  |  |  | weak inhibitory activity | positive PLA2 inhibition | 521 | ~100 | inhibitory activity in PAF production assay (human neutrophils [4]; at greater than 30 uM): did not demonstrate positivr activity; CoA-IT inhibitory activity (CoA-IT; at levels of greater than 30 uM): did not demonstrate positive activity
C[C@@H]1C[C@H]2[C@@H]3CCC4=CC(=O)C=C[C@]4(C)[C@@]3(F)[C@@H](O)C[C@]2(C)[C@@]1(O)C(=O)CO [dexamethasone] | -50 | -54 | -10 | 0 |  |  |  |  | 
CC(=O)O[C@H]1C[C@@H]2[C@@]3(C)CCCC(C)(C)[C@@H]3CC[C@@]2(C)[C@@H]2CC=C(C=O)[C@H](C=O)[C@@]12C [scalaradial] |  | -65 |  | -33 |  |  |  |  | 
NC(=O)N(O)CCC(CSc1ccc(Cc2ccccc2)cc1)NC(=O)CCCCCCc1ccccc1 (racemic) [Example 1, N-[3-(7-phenylheptylamido)-4-(4-phenylmethyl)phenylthio]-butyl-N-hydroxy urea] |  |  |  |  | weak inhibitory activity | positive PLA2 inhibition | 220 | < 100 | IC50 (human neutrophils [4]; Neutrophil, human neutrophils, A23187): ~10 µM; MPO activity, percent change, TPA ear model ([1]; topically, 1 mg/ear): -68%; ear swelling (edema), percent change, TPA ear model ([1]; topically, 1 mg/ear): -43%; inhibition of inflammatory cell infiltration, TPA ear model ([1]; typically dosed at 50 mg/ear): demonstrated activity as an inhibitor of the inflammatory cell infiltration; MPO, AA ear model ([2]; 1 mg/ear): -53%; reduction in ear swelling, AA ear model ([2]; 1 mg/ear): -36%; CoA-IT inhibitory activity (CoA-IT; generally tested at 50 μm levels): positive CoA-IT inhibitory activity
